Measured values published in PubChem BioAssay (NCI).
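Method: 48-hour compound exposure of cells in 96-well plates, five concentrations, linear interpolation of endpoints. TGI is the concentration that stops growth completely.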

Key:
Assay in all cases: NCI tumour cell line growth inhibition, 48 h
786-0 renal = tested on: 786-0 renal
A498 renal = tested on: A498 renal
A549 NSCLC = tested on: A549 NSCLC
ACHN renal = tested on: ACHN renal
CCRF-CEM leukemia = tested on: CCRF-CEM leukemia
COLO 205 colon = tested on: COLO 205 colon
DLD-1 colon = tested on: DLD-1 colon
DMS 114 small cell lung = tested on: DMS 114 small cell lung
DMS 273 small cell lung = tested on: DMS 273 small cell lung
EKVX NSCLC = tested on: EKVX NSCLC
HCC-2998 colon = tested on: HCC-2998 colon
HCT-116 colon = tested on: HCT-116 colon
HL-60(TB) leukemia = tested on: HL-60(TB) leukemia
HOP-18 NSCLC = tested on: HOP-18 NSCLC
HOP-62 NSCLC = tested on: HOP-62 NSCLC
HOP-92 NSCLC = tested on: HOP-92 NSCLC
HT29 colon = tested on: HT29 colon
IGROV1 ovarian = tested on: IGROV1 ovarian
K-562 leukemia = tested on: K-562 leukemia
KM12 colon = tested on: KM12 colon
KM20L2 colon = tested on: KM20L2 colon
LOX IMVI melanoma = tested on: LOX IMVI melanoma
LXFL 529 NSCLC = tested on: LXFL 529 NSCLC
M19-MEL melanoma = tested on: M19-MEL melanoma
MALME-3M melanoma = tested on: MALME-3M melanoma
MOLT-4 leukemia = tested on: MOLT-4 leukemia
NCI-H23 lung = tested on: NCI-H23 lung
NCI-H460 lung = tested on: NCI-H460 lung
NCI-H522 lung = tested on: NCI-H522 lung
OVCAR-3 ovarian = tested on: OVCAR-3 ovarian
OVCAR-5 ovarian = tested on: OVCAR-5 ovarian
OVCAR-8 ovarian = tested on: OVCAR-8 ovarian
RPMI-8226 leukemia = tested on: RPMI-8226 leukemia
RXF 393 renal = tested on: RXF 393 renal
SF-268 CNS = tested on: SF-268 CNS
SF-295 CNS = tested on: SF-295 CNS
SF-539 CNS = tested on: SF-539 CNS
SK-MEL-2 melanoma = tested on: SK-MEL-2 melanoma
SK-MEL-28 melanoma = tested on: SK-MEL-28 melanoma
SK-OV-3 ovarian = tested on: SK-OV-3 ovarian
SNB-19 CNS = tested on: SNB-19 CNS
SNB-75 CNS = tested on: SNB-75 CNS
SNB-78 CNS = tested on: SNB-78 CNS
SW-620 colon = tested on: SW-620 colon
TK-10 renal = tested on: TK-10 renal
U251 CNS = tested on: U251 CNS
UACC-257 melanoma = tested on: UACC-257 melanoma
UO-31 renal = tested on: UO-31 renal
NCI-H226 lung = tested on: NCI-H226 lung
SK-MEL-5 melanoma = tested on: SK-MEL-5 melanoma
SR leukemia = tested on: SR leukemia
UACC-62 melanoma = tested on: UACC-62 melanoma
M14 melanoma = tested on: M14 melanoma
OVCAR-4 ovarian = tested on: OVCAR-4 ovarian
SN12C renal = tested on: SN12C renal
XF 498 CNS = tested on: XF 498 CNS
BT-549 breast = tested on: BT-549 breast
CAKI-1 renal = tested on: CAKI-1 renal
DU-145 prostate = tested on: DU-145 prostate
HCT-15 colon = tested on: HCT-15 colon
HS 578T breast = tested on: HS 578T breast
MCF7 breast = tested on: MCF7 breast
MDA-MB-231 breast = tested on: MDA-MB-231 breast
MDA-MB-435 = tested on: MDA-MB-435
MDA-N = tested on: MDA-N
NCI/ADR-RES ovarian = tested on: NCI/ADR-RES ovarian
PC-3 prostate = tested on: PC-3 prostate
T-47D breast = tested on: T-47D breast

Cc1ccc2c(c1)C1C(CO2)C(c2ccccc2)=NN1c1ccccc1 (stereo unspecified)
TGI (786-0 renal): > 100 µM
TGI (A498 renal): > 100 µM
TGI (A549 NSCLC): > 100 µM
TGI (ACHN renal): > 100 µM
TGI (CCRF-CEM leukemia): > 100 µM
TGI (COLO 205 colon): > 100 µM
TGI (DLD-1 colon): > 100 µM
TGI (DMS 114 small cell lung): > 100000 nM
TGI (DMS 273 small cell lung): > 100 µM
TGI (EKVX NSCLC): > 100 µM
TGI (HCC-2998 colon): > 100 µM
TGI (HCT-116 colon): > 100 µM
TGI (HL-60(TB) leukemia): > 100 µM
TGI (HOP-18 NSCLC): > 100 µM
TGI (HOP-62 NSCLC): > 100 µM
TGI (HOP-92 NSCLC): > 100 µM
TGI (HT29 colon): > 100 µM
TGI (IGROV1 ovarian): > 100 µM
TGI (K-562 leukemia): > 100 µM
TGI (KM12 colon): > 100 µM
TGI (KM20L2 colon): > 100000 nM
TGI (LOX IMVI melanoma): > 100 µM
TGI (LXFL 529 NSCLC): > 100 µM
TGI (M19-MEL melanoma): > 100 µM
TGI (MALME-3M melanoma): > 100 µM
TGI (MOLT-4 leukemia): > 100 µM
TGI (NCI-H23 lung): > 100 µM
TGI (NCI-H460 lung): > 100 µM
TGI (NCI-H522 lung): > 100 µM
TGI (OVCAR-3 ovarian): > 100 µM
TGI (OVCAR-5 ovarian): > 100 µM
TGI (OVCAR-8 ovarian): > 100 µM
TGI (RPMI-8226 leukemia): > 100 µM
TGI (RXF 393 renal): > 100 µM
TGI (SF-268 CNS): > 100 µM
TGI (SF-295 CNS): > 100 µM
TGI (SF-539 CNS): > 100 µM
TGI (SK-MEL-2 melanoma): > 100 µM
TGI (SK-MEL-28 melanoma): > 100 µM
TGI (SK-OV-3 ovarian): > 100 µM
TGI (SNB-19 CNS): > 100 µM
TGI (SNB-75 CNS): > 100 µM
TGI (SNB-78 CNS): > 100 µM
TGI (SW-620 colon): > 100 µM
TGI (TK-10 renal): > 100 µM
TGI (U251 CNS): > 100 µM
TGI (UACC-257 melanoma): > 100 µM
TGI (UO-31 renal): > 100 µM

CCOC(=O)/C(C#N)=C1/Sc2c(ncn(/N=C/c3ccc(OC)cc3)c2=O)N1c1ccccc1
TGI (A549 NSCLC): > 100 µM
TGI (ACHN renal): > 100 µM
TGI (CCRF-CEM leukemia): > 100 µM
TGI (COLO 205 colon): > 100 µM
TGI (DLD-1 colon): > 100 µM
TGI (HCC-2998 colon): > 100 µM
TGI (HCT-116 colon): > 100 µM
TGI (HL-60(TB) leukemia): > 100 µM
TGI (HOP-62 NSCLC): 62.3 µM
TGI (HOP-92 NSCLC): 59 µM
TGI (HT29 colon): > 100 µM
TGI (IGROV1 ovarian): > 100 µM
TGI (K-562 leukemia): > 100 µM
TGI (KM12 colon): > 100 µM
TGI (LXFL 529 NSCLC): > 100 µM
TGI (M19-MEL melanoma): > 100 µM
TGI (MOLT-4 leukemia): > 100 µM
TGI (NCI-H226 lung): > 100 µM
TGI (NCI-H23 lung): > 100 µM
TGI (NCI-H460 lung): > 100 µM
TGI (NCI-H522 lung): > 100 µM
TGI (OVCAR-3 ovarian): > 100 µM
TGI (OVCAR-8 ovarian): > 100 µM
TGI (RPMI-8226 leukemia): > 100 µM
TGI (SF-268 CNS): 77.7 µM
TGI (SF-295 CNS): 76.2 µM
TGI (SF-539 CNS): 34.8 µM
TGI (SK-MEL-28 melanoma): 81.5 µM
TGI (SK-MEL-5 melanoma): > 100 µM
TGI (SK-OV-3 ovarian): > 100 µM
TGI (SNB-19 CNS): > 100 µM
TGI (SR leukemia): > 100 µM
TGI (SW-620 colon): > 100 µM
TGI (TK-10 renal): > 100 µM
TGI (U251 CNS): > 100 µM
TGI (UACC-257 melanoma): > 100 µM
TGI (UACC-62 melanoma): > 100 µM
TGI (UO-31 renal): > 100 µM

COC(=O)NC(=Nc1ccc(Oc2ccccc2)cc1NC=O)NC(=O)OC
TGI (786-0 renal): > 100 µM
TGI (A498 renal): 1.08 µM
TGI (A549 NSCLC): > 100 µM
TGI (ACHN renal): > 100 µM
TGI (CCRF-CEM leukemia): > 100 µM
TGI (COLO 205 colon): 0.618 µM
TGI (DLD-1 colon): > 100 µM
TGI (DMS 114 small cell lung): 864 nM
TGI (EKVX NSCLC): > 100 µM
TGI (HCC-2998 colon): 5.27 µM
TGI (HCT-116 colon): 28 µM
TGI (HL-60(TB) leukemia): 0.707 µM
TGI (HOP-18 NSCLC): > 100 µM
TGI (HOP-62 NSCLC): > 100 µM
TGI (HOP-92 NSCLC): > 100 µM
TGI (HT29 colon): 2.96 µM
TGI (IGROV1 ovarian): > 100 µM
TGI (K-562 leukemia): > 100 µM
TGI (KM12 colon): > 100 µM
TGI (KM20L2 colon): 490 nM
TGI (LOX IMVI melanoma): > 100 µM
TGI (LXFL 529 NSCLC): > 100 µM
TGI (M14 melanoma): > 100 µM
TGI (M19-MEL melanoma): > 100 µM
TGI (MALME-3M melanoma): > 100 µM
TGI (MOLT-4 leukemia): > 100 µM
TGI (NCI-H226 lung): 9.4 µM
TGI (NCI-H23 lung): > 100 µM
TGI (NCI-H522 lung): 0.449 µM
TGI (OVCAR-4 ovarian): > 100 µM
TGI (OVCAR-5 ovarian): > 100 µM
TGI (OVCAR-8 ovarian): 8.57 µM
TGI (RPMI-8226 leukemia): > 100 µM
TGI (SF-268 CNS): > 100 µM
TGI (SF-295 CNS): > 100 µM
TGI (SF-539 CNS): 2.49 µM
TGI (SK-MEL-5 melanoma): > 100 µM
TGI (SK-OV-3 ovarian): 0.526 µM
TGI (SN12C renal): > 100 µM
TGI (SNB-19 CNS): > 100 µM
TGI (SNB-75 CNS): > 100 µM
TGI (SW-620 colon): > 100 µM
TGI (TK-10 renal): > 100 µM
TGI (U251 CNS): 1.21 µM
TGI (UACC-257 melanoma): > 100 µM
TGI (UACC-62 melanoma): > 100 µM
TGI (UO-31 renal): 69.6 µM
TGI (XF 498 CNS): 6.75 µM

COC1=C(Br)C(O)C2(C=C1Br)CC(C(=O)NCCCCNC(=O)C1=NOC3(C=C(Br)C(OC)=C(Br)C3O)C1)=NO2 (stereo unspecified)
TGI (786-0 renal): > 100 µM
TGI (A498 renal): > 100 µM
TGI (A549 NSCLC): > 100 µM
TGI (ACHN renal): 75.1 µM
TGI (BT-549 breast): > 100 µM
TGI (CAKI-1 renal): > 100 µM
TGI (CCRF-CEM leukemia): 40.3 µM
TGI (COLO 205 colon): 30.9 µM
TGI (DU-145 prostate): > 100 µM
TGI (HCC-2998 colon): > 100 µM
TGI (HCT-116 colon): 49.3 µM
TGI (HCT-15 colon): > 100 µM
TGI (HL-60(TB) leukemia): 47.4 µM
TGI (HOP-62 NSCLC): 79 µM
TGI (HOP-92 NSCLC): 94.9 µM
TGI (HS 578T breast): 46.9 µM
TGI (HT29 colon): 38.8 µM
TGI (IGROV1 ovarian): 46.8 µM
TGI (K-562 leukemia): 55.4 µM
TGI (KM12 colon): 27.3 µM
TGI (LOX IMVI melanoma): 35.1 µM
TGI (M14 melanoma): 37 µM
TGI (MALME-3M melanoma): 45.5 µM
TGI (MCF7 breast): 87.4 µM
TGI (MDA-MB-231 breast): 66.6 µM
TGI (MDA-MB-435): 49.8 µM
TGI (MDA-N): 39.7 µM
TGI (NCI-H226 lung): 41.2 µM
TGI (NCI-H23 lung): > 100 µM
TGI (NCI-H460 lung): > 100 µM
TGI (NCI-H522 lung): 29.8 µM
TGI (NCI/ADR-RES ovarian): > 100 µM
TGI (OVCAR-3 ovarian): 39.4 µM
TGI (OVCAR-4 ovarian): > 100 µM
TGI (OVCAR-5 ovarian): > 100 µM
TGI (OVCAR-8 ovarian): > 100 µM
TGI (PC-3 prostate): 62.8 µM
TGI (RPMI-8226 leukemia): 50.5 µM
TGI (RXF 393 renal): 69.6 µM
TGI (SF-268 CNS): 45.1 µM
TGI (SF-295 CNS): 90.5 µM
TGI (SF-539 CNS): 50.3 µM
TGI (SK-MEL-2 melanoma): 52.8 µM
TGI (SK-MEL-28 melanoma): > 100 µM
TGI (SK-MEL-5 melanoma): 36.6 µM
TGI (SK-OV-3 ovarian): > 100 µM
TGI (SN12C renal): > 100 µM
TGI (SNB-19 CNS): > 100 µM
TGI (SNB-75 CNS): 61.2 µM
TGI (SR leukemia): 38.9 µM
TGI (SW-620 colon): > 100 µM
TGI (T-47D breast): 62.9 µM
TGI (TK-10 renal): > 100 µM
TGI (U251 CNS): > 100 µM
TGI (UACC-257 melanoma): 52.8 µM
TGI (UACC-62 melanoma): > 100 µM
TGI (UO-31 renal): > 100 µM
